Experimental data taken from the OPERA property sets (Mansouri et al. 2018).
Where a SMILES comes first, the peptide text is derived from it. [ ]: non-standard residue; d: D form. ξ: configuration not given here. ξW = NC(Cc1c[nH]c2ccccc12)C(=O)O

Compound `CC1CC2C3CCC4=CC(=O)C=CC4(C)C3(F)C(O)CC2(C)C1(O)C(=O)COC(=O)CC(C)(C)C` (centres undefined) has a logP of 4.3.
Compound `CC(=O)NN=Cc1c(CO)ccc(C)c1O` has a logP of 1.71.
With `Cc1c(O)c(=O)ccn1CCCO` the logP was -0.88.
In the case of `O=C(O)CCCON=C(c1ccccc1)c1ncccn1`, the logP is reported as 1.64.
For `Cc1oc2nc3oc(=O)ccc3c(C)c2c1C`, the logP was 2.19.
In the case of `CC(C)CC(NC(=O)C(N)Cc1c[nH]c2ccccc12)C(=O)O` (centres undefined), the logP is reported as -0.73.
`Cc1coc2c(C)c3oc(=O)ccc3cc12` showed a logP of 2.81.
Compound `COC(=O)Sc1ncc(C=C(C(=O)OC)C(=O)OC)n1C` has a logP of 0.49.
Compound `NC(Cc1c[nH]c2ccccc12)C(=O)NC(Cc1ccc(O)cc1)C(=O)O` (centres undefined) has a logP of -1.13.
With `CNc1nc(NC)nc(NC(C)C)n1` the logP was 1.87.
Work on `Nc1nc(N)c2c(N3CCCCC3)cccc2n1` yielded a logP of 2.66.
Work on `CCCOc1ccccc1NC(=O)OCCN1CCCCC1` yielded a logP of 4.23.
`CC(NCC(O)CON=C(C1CC1)C1CC1)c1ccccc1` (centres undefined) showed a logP of 2.32.
`O=[N+]([O-])c1cc(F)ccc1O` showed a logP of 1.88.
For `COC(=O)C(C)NP(=O)(OCC1C=CC(n2cc(C)c(=O)[nH]c2=O)O1)Oc1ccc(C)cc1` (centres undefined), the logP was 1.19.
In the case of `CCCOC(=O)c1cnc2n(c1=O)C(C)CCC2` (centres undefined), the logP is reported as 1.14.
Work on `COC(=O)C1=C(C)NC(C)=C(P2(=O)OCCCO2)C1c1ccccc1[N+](=O)[O-]` (centres undefined) yielded a logP of 1.3.
`NC(=O)c1c(O)cccc1O` gave a logP of 0.6.
For `Cc1ncc([N+](=O)[O-])n1CCN=[N+]=[N-]`, the logP was 0.76.
In the case of `Nc1nnnn1-c1cc(Cl)ccc1Cl`, the logP is reported as 1.61.
In the case of `COc1ccc(-c2cc(=O)ss2)cc1`, the logP is reported as 3.19.
For `O=C1CCC(c2ccc(-n3ccnc3)cc2)=NN1`, the logP was 0.96.
In the case of `O=C(Nc1ccccc1)c1ccccc1I`, the logP is reported as 2.85.
`O=C1c2ccccc2-c2cc([N+](=O)[O-])ccc21` showed a logP of 3.06.
With `Cc1cccc(N2CC(N3CCOCC3)=CC2=O)c1` the logP was 1.5.
For `COCc1ccc(CC#N)cc1`, the logP was 1.23.
Work on `CCCCCOc1ccc(NC(=O)OCCN2CCCCC2)cc1` yielded a logP of 5.31.
Work on `CC(C)C1(C)N=C(c2ncc(Br)cc2C(=O)O)NC1=O` (centres undefined) yielded a logP of 1.19.
In the case of `CNC(=O)Cn1cccc(O)c1=O`, the logP is reported as -1.15.
Compound `CCCc1ccc(CNc2[nH]cnc3ncnc2-3)cc1` has a logP of 3.72.
With `Cc1cc(=O)oc2c1c(C)cc1occ(C)c12` the logP was 3.04.
`CC(C)CC(N)C(=O)NC(CC(C)C)C(=O)NC(CC(C)C)C(=O)NC(Cc1ccccc1)C(=O)O` (centres undefined) (H-LLLF-OH; configuration not given here) gave a logP of 0.24.
In the case of `COc1ccc(C2Cc3cc(OCc4ccccc4)ccc3N(CCN(C)C)C(=O)C2OC(C)=O)cc1` (centres undefined), the logP is reported as 5.4.
`COC(=O)C(C)NP(=O)(OCC1C=CC(n2cc(C)c(=O)[nH]c2=O)O1)Oc1ccc(I)cc1` (centres undefined) showed a logP of 1.93.
In the case of `O=S(=O)(NC(=S)NC1CCCCC1)c1cnccc1NC1CCCCCC1`, the logP is reported as 4.71.
`COC(=O)c1ccc2ccc3cccc4ccc1c2c34` showed a logP of 4.73.
With `CC(=NNC(=O)c1ccncc1)c1cnccn1` the logP was 1.2.
For `Clc1ccccc1N1CCN(CCn2nc3ccccc3n2)CC1`, the logP was 4.
Compound `CC(C)CCCCCNc1[nH]cnc2ncnc1-2` has a logP of 4.16.
`COCCOCCOCCOc1ccc(C2=NC(C)(C(=O)O)CS2)c(O)c1` (centres undefined) gave a logP of 1.3.
`CC(C)CC(N)C(=O)NC(CC(C)C)C(=O)NC(CC(C)C)C(=O)NC(C(=O)O)C(C)C` (centres undefined) (H-LLLV-OH; configuration not given here) showed a logP of -0.51.
For `CCCCN1CCCC1CNC(=O)c1cc(S(N)(=O)=O)cc2c1OC(C)C2` (centres undefined), the logP was 2.8.
`CCOC(=O)C1=C(C)NC(C)=C(C(=O)OC)C1C` (centres undefined) showed a logP of 3.27.
Compound `Cc1cccc(C)c1Cc1ccccn1` has a logP of 3.48.
Compound `C=CCNc1nc(CCC)nc(N2CCOCC2)n1` has a logP of 2.37.
Compound `CC(C)(C)c1cc(O)cc(C(C)(C)C)c1` has a logP of 4.64.
`CCC(C)c1cnc(CC(C)C)c(=O)n1O` (centres undefined) showed a logP of 1.81.
For `Brc1cc(Br)c(N=C2NCCN2)c(Br)c1`, the logP was 2.54.
With `CC(=O)c1ccc2ccc3cccc4ccc1c2c34` the logP was 4.18.
With `CC(C)(O)C1CCC2(C)CCCC(O)C2C1` (centres undefined) the logP was 2.68.
Compound `C#CCCCCl` has a logP of 1.85.
For `O=Cc1ccc(Cl)cc1O`, the logP was 2.49.
`CN1CC(O)N(C(=O)NCCCl)C1=O` (centres undefined) showed a logP of 0.71.
For `CCOC(=O)C1=C(C)NC(C)=C(C(=O)OCC)C1c1cccc2c1OCO2`, the logP was 4.32.
`COc1cc2c(Nc3cc(CC(=O)Nc4cccc(F)c4F)[nH]n3)ncnc2cc1OCCCN1CCCC1CO` (centres undefined) showed a logP of 3.6.
With `COc1ccc(CCNCC(O)COc2ccc(-c3ncco3)cc2)cc1OC` (centres undefined) the logP was 2.6.
`C=CCNC(=O)c1[nH]cc(-c2ccc(Cl)cc2)c1N1CCOCC1` showed a logP of 3.7.
For `O=C(Cc1ccccc1)c1c(O)c2ccc(Cl)cc2[nH]c1=O`, the logP was 3.66.
In the case of `CC(=O)Nc1cc(NCC(C)O)c(Cl)cc1N=Nc1ccc([N+](=O)[O-])cc1Cl` (centres undefined), the logP is reported as 4.
In the case of `CCON=C(CC)C1=C(O)CC(c2cccc(Oc3ccc(Cl)c(Cl)c3)c2)CC1=O` (centres undefined), the logP is reported as 6.32.
In the case of `CC(C)CC(NC(=O)C(Cc1ccccc1)NC(=O)C(N)C(C)C)C(=O)NC(C(=O)O)C(C)O` (centres undefined) (H-VFLT-OH; configuration not given here), the logP is reported as -1.32.
Compound `CC12CC(Cl)(Cl)C(CC1(Cl)Cl)C2(CCl)C(Cl)Cl` (centres undefined) has a logP of 5.49.
In the case of `CC1(C)CC(=O)C=C(N2CCCCC2)C1`, the logP is reported as 2.83.
In the case of `COC(=O)N1CCN(C(=O)Cc2ccc(Cl)c(Cl)c2)C(CN2CCCC2)C1` (centres undefined), the logP is reported as 4.1.
For `c1nc(N2CCCCC2)c2[nH]cnc2n1`, the logP was 2.11.
For `CCNc1nc(N)nc(OC)n1`, the logP was 0.89.
`CON(C)C(=O)Nc1ccc(C2CCCCC2)cc1` gave a logP of 4.08.
In the case of `CC(C)CC(N)C(=O)NC(CC(C)C)C(=O)N1CCCC1C(=O)O` (stereo not drawn) (H-Leu-Leu-Pro-OH; configuration not given here), the logP is reported as -1.58.
Compound `CC(=O)OC1C(CCl)OC(n2cc(F)c(=O)[nH]c2=O)C1OC(C)=O` (centres undefined) has a logP of 0.38.
Compound `COC1=CC(=O)c2c(c(COC(N)=O)c3n2CCC3OC(C)=O)C1=O` (centres undefined) has a logP of 0.72.
Work on `CC(C)n1cccc(O)c1=O` yielded a logP of 0.79.
In the case of `CCCN(CCC)C1CCc2c(cccc2OC)C1` (centres undefined), the logP is reported as 4.24.
In the case of `CC(C)NCC(O)c1ccc([N+](=O)[O-])cc1` (centres undefined), the logP is reported as 1.28.
Compound `Cc1c2oc(=O)ccc2c(C)c2c(C)coc12` has a logP of 3.35.
Compound `CC(C)C1(C)N=C(c2ncc3ccccc3c2C(=O)O)NC1=O` (centres undefined) has a logP of 1.81.
`CC(C)(C)c1ccc(C(CCN2CCCCC2)c2ccccc2)cc1` (centres undefined) gave a logP of 6.83.
`C=C1CC2c3c(O)cc(CCCCC)cc3OC(C)(C)C2CC1O` (centres undefined) gave a logP of 5.24.
`Cc1ccc(C(=O)OCCCn2ccc(=O)c(O)c2C)cn1` gave a logP of 0.28.
`Cc1cc(=O)c(O)c(CNC(=O)C(C)C)n1C` gave a logP of -0.35.
For `CCCc1nc(N2CCOCC2)nc(N(C)C(=O)c2ccccc2)n1`, the logP was 2.01.
For `CC(C)(C)c1ccc(C(O)CCCN2CCC(C(O)c3ccccc3)CC2)cc1` (centres undefined), the logP was 4.06.
In the case of `OCCCNc1[nH]cnc2ncnc1-2`, the logP is reported as 0.11.
For `O=CC(=C(Cl)C(=O)O)C(Cl)Cl`, the logP was 1.13.
`CC(C)c1cccc(C(C)C)c1NC(=O)CC(=O)c1ccccc1` showed a logP of 2.87.
Compound `CC(CO)N(C)C` (centres undefined) has a logP of 0.16.
Work on `CCN(CC)CCC(=O)Nc1ccc(N)cc1` yielded a logP of 0.8.
With `COC(=O)c1c(Oc2nc(OC)cc(OC)n2)cccc1C(C)=NOCC(F)(F)F` the logP was 3.39.
With `CCCCCOCCCNc1ncnc2c1ncn2C1OC(CO)C(O)C1O` (centres undefined) the logP was 1.82.
`Cc1ccc(CO)c(C=NNC(=O)c2cccc(F)c2)c1O` gave a logP of 3.41.
`Cc1cccc(C)c1CCN` showed a logP of 2.38.
For `Cc1oc2nc3oc(=O)c(C)c(C)c3cc2c1C`, the logP was 2.71.
In the case of `O=[N+]([O-])c1nccn1COCC=CCO`, the logP is reported as -0.28.
With `CCCc1c2c(cc3c(=O)cc(C(=O)O)oc13)CCCC2` the logP was 4.2.
Compound `CCN(CC)c1ccc(-n2c(C(F)(F)F)nn(C)c2=S)cc1` has a logP of 3.79.
Compound `Cc1cc2oc(=O)cc(C)c2c2occc12` has a logP of 2.84.
For `CC(C)NCC(O)COc1ccc(NC=O)cc1` (centres undefined), the logP was 0.54.
With `COC(=O)C(C)NP(=O)(OCC1C=CC(n2cc(C)c(=O)[nH]c2=O)O1)Oc1cccc(C(F)(F)F)c1` (centres undefined) the logP was 1.57.
Work on `CN(C)C(C)(C)CO` yielded a logP of 0.29.
With `OCC1OC(n2cnc3c(Nc4ccccc4)ncnc32)C(O)C1O` (centres undefined) the logP was 1.28.
For `NC(Cc1c[nH]c2ccccc12)C(=O)NCC(=O)NCC(=O)O` (stereo not drawn) (H-[ξW]-Gly-Gly-OH), the logP was -2.72.
Work on `Cc1cccc2c1C(=O)N(CCO[N+](=O)[O-])CO2` yielded a logP of 2.54.
`CCCc1ccccc1CNc1[nH]cnc2ncnc1-2` gave a logP of 3.47.
For `CCOc1cc2ncnc(Nc3ccc(F)cc3)c2cc1OCC`, the logP was 3.73.
For `Cc1sc2cc3oc(=O)cc(C)c3cc2c1C`, the logP was 3.48.
Compound `CC(=O)OC1CCCC2(C)CCC(C(C)(C)O)CC12` (centres undefined) has a logP of 3.42.
Work on `CC(C)CC(NC(=O)C(N)Cc1ccccc1)C(=O)O` (stereo not drawn) (H-Phe-Leu-OH; configuration not given here) yielded a logP of -1.17.
For `COC(=O)Nc1c(C(C)C)cccc1C(C)C`, the logP was 2.2.
`Cc1cc(=O)[nH]c2c1cc(C)c1occ(C)c12` gave a logP of 3.13.
Work on `COCC(O)Cn1c(Br)cnc1[N+](=O)[O-]` (centres undefined) yielded a logP of 0.16.
In the case of `O=C(Cn1cnc([N+](=O)[O-])n1)NCCCO`, the logP is reported as -1.27.
Work on `COCCNc1ncnc2c1ncn2C1OC(CO)C(O)C1O` (centres undefined) yielded a logP of -0.49.
`Cc1c(O)c(=O)ccn1CCCOC(=O)c1ccc(F)cc1` showed a logP of 1.47.
Compound `CCCCCCNCCO` has a logP of 1.67.
In the case of `CN(C(=O)CO)c1c(I)c(C(=O)NCC(O)CO)c(I)c(C(=O)NCC(O)CO)c1I` (centres undefined), the logP is reported as -2.79.
With `CCOc1ccccc1NC(=O)OCCN1CCCCC1` the logP was 3.59.
`CC1=CCC(C)(C)C=CCC2(C)OC2CC1` (centres undefined) showed a logP of 4.45.
Compound `CC(C)Nc1[nH]cnc2ncnc1-2` has a logP of 1.38.
`COc1ccc(-c2cn3cc(N)cnc3n2)c(OC)c1` gave a logP of 1.68.
In the case of `CN(C)c1cccc2nc(N)nc(N)c12`, the logP is reported as 1.65.
Compound `CCN(CC)CC(=O)Nc1ccccc1` has a logP of 2.49.
With `OCCCCCCCNc1[nH]cnc2ncnc1-2` the logP was 1.73.
Compound `CC(C)CC(N)C(=O)NC(C)C(=O)NC(CC(C)C)C(=O)O` (stereo not drawn) (H-Leu-Ala-Leu-OH; configuration not given here) has a logP of -2.03.
For `CC(C)(C)NCC(COc1nsnc1N1CCOCC1)OC(=O)C1CC1` (centres undefined), the logP was 3.54.
`CC(C)NC(=NC#N)NS(=O)(=O)c1cnccc1Nc1cccc(F)c1` gave a logP of 1.59.
Compound `Nc1nc(N)c2c(OCc3ccccc3)cccc2n1` has a logP of 2.82.
Work on `Cc1ccc(O)cc1N` yielded a logP of 1.16.
Work on `O=c1ssc(-c2ccccc2)c1-c1ccccc1` yielded a logP of 4.07.
In the case of `CSCCC(N)C(=O)NC(C(=O)O)C(C)C` (stereo not drawn) (H-Met-Val-OH; configuration not given here), the logP is reported as -2.53.
In the case of `CC(C)NCC(O)COc1ccc(-c2nc(-c3cccs3)c[nH]2)cc1` (centres undefined), the logP is reported as 3.2.
